In brackets after ≈: the same amount, converted by molar mass.
Experiments:
Assay in all cases: in vitro antibacterial evaluation, MIC by broth dilution
Assay type in all cases: cell-based
Conditions in all cases: broth dilution, 18 hours at 35° C.
[1] = tested on: Staphylococcus sp.
Procedure: (§1) Methods for in vitro Antibacterial Evaluation (Table 1)
(§2) The minimum inhibitory concentration (MIC), the lowest concentration of the antibiotic which inhibits growth of the test organism, is determined by the broth dilution method using Muller-Hinton II […] (Baltimore Biological Laboratories) following the recommendations of the National Committee for Clinical Laboratory Standards [Methods for dilution antimicrobial susceptibility tests for bacteria that grow aerobically, approved standard M7-A2, National Committee for Clinical Laboratory Standards, Villanova, Pa.].
(§3) An inoculum level of 5×10^5 CFU/mL, and a range of antibiotic concentrations (64-0.06 μg/mL) is used. […] The test organisms include a spectrum of Gram-positive bacteria comprised of Staphylococcus sp., Streptococcus sp. and Enterococcus sp. These organisms include recent clinical isolates that are resistant to methicillin, penicillin and/or vancomycin.

[2] = tested on: Enterococcus sp.
Procedure: as §1, §2, §3

[3] = tested on: Streptococcus sp.
Procedure: as §1, §2, §3

CC(c1ccccc1)C1NC(=O)CNC(=O)C(CO)NC(=O)C(C(O)C2CNC(=N)N2C2OC(CO)C(O)C(O)C2O)NC(=O)C(C(O)C2CNC(=N)N2)NC(=O)C(Cc2ccc(OC3OC(CO)C(OC4OC(CO)C(OCC=C(c5ccccc5)c5ccccc5)C(O)C4O)C(O)C3O)cc2)NC1=O (centres unmarked) [Example 241a]
MIC Coagulase Negative Staphylococcus (GC 4547) [1]: 4 µg/mL (≈ 2.69 µM)
MIC Coagulase Negative Staphylococcus (GC 4548) [1]: 2 µg/mL (≈ 1.34 µM)
MIC Coagulase Negative Staphylococcus (GC 4549) [1]: 1 µg/mL (≈ 0.672 µM)
MIC Coagulase Negative Staphylococcus (GC 4551) [1]: 4 µg/mL (≈ 2.69 µM)
MIC Coagulase Negative Staphylococcus (GC 6257) [1]: 1 µg/mL (≈ 0.672 µM)
MIC Staphylococcus aureus (ATCC 29213) [1]: 2 µg/mL (≈ 1.34 µM)
MIC Staphylococcus aureus (GC 1131) [1]: 2 µg/mL (≈ 1.34 µM)
MIC Staphylococcus aureus (GC 3051) [1]: 2 µg/mL (≈ 1.34 µM)
MIC Staphylococcus aureus (GC 3053) [1]: 2 µg/mL (≈ 1.34 µM)
MIC Staphylococcus aureus (GC 4541) [1]: 2 µg/mL (≈ 1.34 µM)
MIC Staphylococcus aureus (GC 4542) [1]: 2 µg/mL (≈ 1.34 µM)
MIC Staphylococcus aureus (GC 4544) [1]: 4 µg/mL (≈ 2.69 µM)
MIC Staphylococcus aureus (GC 4545) [1]: 2 µg/mL (≈ 1.34 µM)
MIC Staphylococcus aureus-SMITH (GC 4543) [1]: 2 µg/mL (≈ 1.34 µM)
MIC Staphylococcus haemolyticus (GC 4546) [1]: 2 µg/mL (≈ 1.34 µM)
MIC Staphylococcus aureus (ATCC 29213) ([1]; strain ATCC 29213): 2 µg/mL (≈ 1.34 µM)
MIC Staphylococcus aureus (GC 1131) ([1]; strain GC 1131): 2 µg/mL (≈ 1.34 µM)
MIC Staphylococcus aureus (GC 3051) ([1]; strain GC 3051): 2 µg/mL (≈ 1.34 µM)
MIC Staphylococcus aureus (GC 3053) ([1]; strain GC 3053): 2 µg/mL (≈ 1.34 µM)
MIC Staphylococcus aureus (GC 4541) ([1]; strain GC 4541): 2 µg/mL (≈ 1.34 µM)
MIC Staphylococcus aureus (GC 4542) ([1]; strain GC 4542): 2 µg/mL (≈ 1.34 µM)
MIC Staphylococcus aureus-SMITH (GC 4543) ([1]; strain GC 4543): 2 µg/mL (≈ 1.34 µM)
MIC Staphylococcus aureus (GC 4544) ([1]; strain GC 4544): 4 µg/mL (≈ 2.69 µM)
MIC Staphylococcus aureus (GC 4545) ([1]; strain GC 4545): 2 µg/mL (≈ 1.34 µM)
MIC Staphylococcus haemolyticus (GC 4546) ([1]; strain GC 4546): 2 µg/mL (≈ 1.34 µM)
MIC Coagulase Negative Staphylococcus (GC 4547) ([1]; strain GC 4547): 4 µg/mL (≈ 2.69 µM)
MIC Coagulase Negative Staphylococcus (GC 4548) ([1]; strain GC 4548): 2 µg/mL (≈ 1.34 µM)
MIC Coagulase Negative Staphylococcus (GC 4549) ([1]; strain GC 4549): 1 µg/mL (≈ 0.672 µM)
MIC Coagulase Negative Staphylococcus (GC 4551) ([1]; strain GC 4551): 4 µg/mL (≈ 2.69 µM)
MIC Coagulase Negative Staphylococcus (GC 6257) ([1]; strain GC 6257): 1 µg/mL (≈ 0.672 µM)
MIC Enterococcus faecalis (GC 2242) [2]: 4 µg/mL (≈ 2.69 µM)
MIC Enterococcus faecalis (GC 2691) [2]: 2 µg/mL (≈ 1.34 µM)
MIC Enterococcus faecalis (GC 3059) [2]: 2 µg/mL (≈ 1.34 µM)
MIC Enterococcus faecalis (GC 4552) [2]: 4 µg/mL (≈ 2.69 µM)
MIC Enterococcus faecalis (ATCC 29212) ([2]; strain ATCC 29212): 4 µg/mL (≈ 2.69 µM)
MIC Enterococcus faecium (GC 2243) ([2]; strain GC 2243): 2 µg/mL (≈ 1.34 µM)
MIC Enterococcus faecalis (GC 4552) ([2]; strain GC 4552): 4 µg/mL (≈ 2.69 µM)
MIC Enterococcus faecalis (GC 4553) ([2]; strain GC 4553): 4 µg/mL (≈ 2.69 µM)
MIC Enterococcus faecalis (GC 4554) ([2]; strain GC 4554): 4 µg/mL (≈ 2.69 µM)
MIC Enterococcus faecium (GC 4556) ([2]; strain GC 4556): 2 µg/mL (≈ 1.34 µM)
MIC Enterococcus faecium (GC 4557) ([2]; strain GC 4557): 2 µg/mL (≈ 1.34 µM)
MIC Enterococcus avium (GC 4558) ([2]; strain GC 4558): 2 µg/mL (≈ 1.34 µM)
MIC Enterococcus faecalis (GC 6189) ([2]; strain GC 6189): 2 µg/mL (≈ 1.34 µM)
MIC Enterococcus faecalis (GC 2242) ([2]; inoculum 5×10^5 CFU/mL, strain GC 2242): 4 µg/mL (≈ 2.69 µM)
MIC Enterococcus faecalis (GC 2691) ([2]; inoculum 5×10^5 CFU/mL, strain GC 2691): 2 µg/mL (≈ 1.34 µM)
MIC Enterococcus faecalis (GC 3059) ([2]; inoculum 5×10^5 CFU/mL, strain GC 3059): 2 µg/mL (≈ 1.34 µM)
MIC Streptococcus agalactiae (GC 4564) [3]: <0.06 µg/mL
MIC Streptococcus pneumoniae (ATCC 6301) [3]: <0.06 µg/mL
MIC Streptococcus pneumoniae (GC 1894) [3]: <0.06 µg/mL
MIC Streptococcus pneumoniae (GC 4565) [3]: <0.06 µg/mL
MIC Streptococcus pyogenes (GC 4563) [3]: <0.06 µg/mL
MIC Streptococcus pneumoniae (ATCC 6301) ([3]; inoculum 5×10^5 CFU/mL, strain ATCC 6301): <0.06 µg/mL
MIC Streptococcus pneumoniae (GC 1894) ([3]; inoculum 5×10^5 CFU/mL, strain GC 1894): <0.06 µg/mL
MIC Streptococcus pyogenes (GC 4563) ([3]; inoculum 5×10^5 CFU/mL, strain GC 4563): <0.06 µg/mL
MIC Streptococcus agalactiae (GC 4564) ([3]; inoculum 5×10^5 CFU/mL, strain GC 4564): <0.06 µg/mL
MIC Streptococcus pneumoniae (GC 4565) ([3]; inoculum 5×10^5 CFU/mL, strain GC 4565): <0.06 µg/mL
